# Reference: ChEMBL document CHEMBL5653631, “A Potent and Selective ULK1 Inhibitor Suppresses Autophagy and Sensitizes Cancer Cells to Nutrient Stress” (iScience, 2018)
# Experiments:
# [1] = molecular target: Calcium/calmodulin-dependent protein kinase type II subunit alpha (Homo sapiens) (UniProt Q9UQM7); assay: Inhibition of human recombinant CaMK2a at 40 nM related to control ULK1
# [2] = molecular target: Tyrosine-protein kinase Fes/Fps (Homo sapiens) (UniProt P07332); assay: Inhibition of human recombinant FES at 40 nM related to control ULK1
# Chain of Tyrosine-protein kinase Fes/Fps (Homo sapiens) (P07332 whole entry): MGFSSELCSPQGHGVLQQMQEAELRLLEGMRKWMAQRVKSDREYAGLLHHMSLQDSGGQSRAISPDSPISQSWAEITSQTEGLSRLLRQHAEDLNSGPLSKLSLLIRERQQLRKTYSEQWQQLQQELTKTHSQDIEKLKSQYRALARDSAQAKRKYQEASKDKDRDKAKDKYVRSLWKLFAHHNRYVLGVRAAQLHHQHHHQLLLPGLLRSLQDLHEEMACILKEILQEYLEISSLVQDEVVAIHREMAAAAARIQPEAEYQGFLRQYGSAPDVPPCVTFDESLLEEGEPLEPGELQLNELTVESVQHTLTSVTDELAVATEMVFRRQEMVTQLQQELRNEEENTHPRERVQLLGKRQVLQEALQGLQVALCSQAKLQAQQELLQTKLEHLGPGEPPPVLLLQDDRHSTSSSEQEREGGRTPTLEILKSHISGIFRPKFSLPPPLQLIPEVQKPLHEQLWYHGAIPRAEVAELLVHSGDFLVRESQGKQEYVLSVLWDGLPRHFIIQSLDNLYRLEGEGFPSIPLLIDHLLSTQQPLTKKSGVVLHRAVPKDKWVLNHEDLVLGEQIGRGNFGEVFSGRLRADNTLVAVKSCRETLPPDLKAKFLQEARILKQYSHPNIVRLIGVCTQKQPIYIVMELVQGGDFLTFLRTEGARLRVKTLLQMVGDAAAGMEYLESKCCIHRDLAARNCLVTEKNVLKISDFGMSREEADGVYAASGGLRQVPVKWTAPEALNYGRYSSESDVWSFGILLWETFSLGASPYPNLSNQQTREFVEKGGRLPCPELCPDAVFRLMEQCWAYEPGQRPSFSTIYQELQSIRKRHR
# [3] = molecular target: Calcium/calmodulin-dependent protein kinase type II subunit gamma (Homo sapiens) (UniProt Q13555); assay: Inhibition of human recombinant CaMK2g at 500 nM in presence of ATP by radiometric assay relative to control
# Chain of Calcium/calmodulin-dependent protein kinase type II subunit gamma (Homo sapiens) (Q13555 whole entry): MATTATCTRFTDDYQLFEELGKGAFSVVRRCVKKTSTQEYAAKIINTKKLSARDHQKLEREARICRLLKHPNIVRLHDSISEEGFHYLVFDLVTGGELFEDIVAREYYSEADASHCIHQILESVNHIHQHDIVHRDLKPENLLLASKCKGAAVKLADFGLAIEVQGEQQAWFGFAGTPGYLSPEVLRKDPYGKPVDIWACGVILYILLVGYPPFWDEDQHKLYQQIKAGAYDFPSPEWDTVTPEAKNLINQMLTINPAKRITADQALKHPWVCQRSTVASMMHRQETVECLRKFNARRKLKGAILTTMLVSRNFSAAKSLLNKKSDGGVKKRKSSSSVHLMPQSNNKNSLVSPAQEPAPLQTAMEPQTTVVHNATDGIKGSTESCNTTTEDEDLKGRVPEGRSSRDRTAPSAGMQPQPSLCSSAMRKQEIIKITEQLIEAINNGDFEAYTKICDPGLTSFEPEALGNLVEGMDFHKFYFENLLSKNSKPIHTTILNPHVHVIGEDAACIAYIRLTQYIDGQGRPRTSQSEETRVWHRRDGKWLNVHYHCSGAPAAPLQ
# [4] = molecular target: Focal adhesion kinase 1 (Homo sapiens) (UniProt Q05397); assay: Inhibition of human recombinant FAK at 500 nM related to control ULK1
# Chain of Focal adhesion kinase 1 (Homo sapiens) (Q05397 2-1052 limits assumed): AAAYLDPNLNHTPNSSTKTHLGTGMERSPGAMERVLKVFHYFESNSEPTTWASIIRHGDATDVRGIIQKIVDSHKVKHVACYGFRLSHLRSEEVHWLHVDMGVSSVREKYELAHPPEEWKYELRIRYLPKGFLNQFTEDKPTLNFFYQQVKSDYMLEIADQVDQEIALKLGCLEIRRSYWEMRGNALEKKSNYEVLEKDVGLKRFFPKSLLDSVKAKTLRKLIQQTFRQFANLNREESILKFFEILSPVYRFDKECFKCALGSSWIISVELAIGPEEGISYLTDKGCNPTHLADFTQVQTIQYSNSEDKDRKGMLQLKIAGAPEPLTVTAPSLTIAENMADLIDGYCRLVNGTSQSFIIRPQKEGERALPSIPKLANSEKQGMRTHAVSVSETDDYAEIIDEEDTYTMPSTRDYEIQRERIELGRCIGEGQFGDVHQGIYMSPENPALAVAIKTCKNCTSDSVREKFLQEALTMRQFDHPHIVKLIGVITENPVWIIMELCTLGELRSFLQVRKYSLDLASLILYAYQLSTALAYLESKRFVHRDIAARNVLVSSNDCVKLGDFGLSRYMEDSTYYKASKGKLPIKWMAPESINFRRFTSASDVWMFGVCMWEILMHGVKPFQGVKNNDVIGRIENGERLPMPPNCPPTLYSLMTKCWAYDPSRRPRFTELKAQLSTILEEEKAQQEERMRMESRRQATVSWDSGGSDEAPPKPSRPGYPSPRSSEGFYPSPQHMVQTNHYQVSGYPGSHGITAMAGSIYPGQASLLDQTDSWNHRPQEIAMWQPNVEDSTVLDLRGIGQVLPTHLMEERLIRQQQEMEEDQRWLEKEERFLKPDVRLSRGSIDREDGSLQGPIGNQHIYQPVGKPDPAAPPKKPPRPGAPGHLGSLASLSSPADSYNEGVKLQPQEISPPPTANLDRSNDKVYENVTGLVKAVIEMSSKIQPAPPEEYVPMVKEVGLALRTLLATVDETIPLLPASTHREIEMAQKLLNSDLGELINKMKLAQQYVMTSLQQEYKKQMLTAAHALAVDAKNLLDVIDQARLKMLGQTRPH
# [5] = molecular target: T1, Serine/threonine-protein kinase STK11 (Homo sapiens) (UniProt Q15831); assay: Inhibition of human recombinant LKB1 at 500 nM related to control ULK1
# T1 sequence (whole entry): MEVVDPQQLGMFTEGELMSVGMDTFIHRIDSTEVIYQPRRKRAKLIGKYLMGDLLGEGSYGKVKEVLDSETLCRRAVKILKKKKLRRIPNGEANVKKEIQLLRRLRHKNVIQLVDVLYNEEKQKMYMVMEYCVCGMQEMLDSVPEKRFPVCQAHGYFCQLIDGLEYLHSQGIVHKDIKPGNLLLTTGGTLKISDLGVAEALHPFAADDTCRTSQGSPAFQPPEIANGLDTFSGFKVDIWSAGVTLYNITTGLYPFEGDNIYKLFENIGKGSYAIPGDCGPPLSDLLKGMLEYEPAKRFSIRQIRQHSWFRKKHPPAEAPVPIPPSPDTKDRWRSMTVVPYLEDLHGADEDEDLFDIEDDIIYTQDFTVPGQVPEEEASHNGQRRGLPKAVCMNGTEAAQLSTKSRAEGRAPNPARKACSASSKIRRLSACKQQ
# [6] = molecular target: T2, Tribbles homolog 2 (Homo sapiens) (UniProt Q92519); assay: Inhibition of human recombinant Trb2 at 500 nM related to control ULK1
# T2 sequence (whole entry): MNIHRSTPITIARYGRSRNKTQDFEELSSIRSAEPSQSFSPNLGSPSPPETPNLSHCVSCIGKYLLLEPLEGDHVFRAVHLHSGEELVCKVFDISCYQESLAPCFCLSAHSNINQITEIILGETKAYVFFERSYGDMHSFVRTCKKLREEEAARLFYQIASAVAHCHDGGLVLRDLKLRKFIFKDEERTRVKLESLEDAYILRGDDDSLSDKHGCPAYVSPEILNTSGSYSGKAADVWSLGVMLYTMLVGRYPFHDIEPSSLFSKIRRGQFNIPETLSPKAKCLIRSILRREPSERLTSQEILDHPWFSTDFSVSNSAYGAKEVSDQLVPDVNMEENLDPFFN
# [7] = molecular target: T3, Mitogen-activated protein kinase kinase kinase 3 (Homo sapiens) (UniProt Q99759); assay: Inhibition of human recombinant MAP3K3 at 15 nM in presence of ATP by radiometric assay relative to control
# T3 sequence (whole entry): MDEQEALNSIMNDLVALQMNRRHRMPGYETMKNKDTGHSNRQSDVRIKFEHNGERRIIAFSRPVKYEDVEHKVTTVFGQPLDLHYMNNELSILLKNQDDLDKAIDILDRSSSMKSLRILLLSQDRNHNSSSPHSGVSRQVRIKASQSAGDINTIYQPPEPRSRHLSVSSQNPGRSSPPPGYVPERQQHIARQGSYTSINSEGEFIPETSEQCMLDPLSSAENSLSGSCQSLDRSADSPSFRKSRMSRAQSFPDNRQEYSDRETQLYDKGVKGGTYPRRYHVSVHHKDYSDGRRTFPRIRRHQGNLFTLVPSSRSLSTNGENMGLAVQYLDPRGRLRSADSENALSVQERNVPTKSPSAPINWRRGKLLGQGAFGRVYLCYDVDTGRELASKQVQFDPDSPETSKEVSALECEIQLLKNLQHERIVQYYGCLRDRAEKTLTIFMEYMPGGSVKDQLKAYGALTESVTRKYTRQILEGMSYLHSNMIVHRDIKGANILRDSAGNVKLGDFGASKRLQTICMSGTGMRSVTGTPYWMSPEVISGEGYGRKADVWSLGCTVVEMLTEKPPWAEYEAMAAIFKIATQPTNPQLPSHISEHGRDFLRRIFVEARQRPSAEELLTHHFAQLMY
# [8] = molecular target: Tyrosine-protein kinase Fes/Fps (Homo sapiens) (UniProt P07332); assay: Inhibition of human recombinant FES at 15 nM related to control ULK1
# [9] = molecular target: T4, NUAK family SNF1-like kinase 2 (Homo sapiens) (UniProt Q9H093); assay: Inhibition of human recombinant NuaK2 at 15 nM related to control ULK1
# T4 sequence (whole entry): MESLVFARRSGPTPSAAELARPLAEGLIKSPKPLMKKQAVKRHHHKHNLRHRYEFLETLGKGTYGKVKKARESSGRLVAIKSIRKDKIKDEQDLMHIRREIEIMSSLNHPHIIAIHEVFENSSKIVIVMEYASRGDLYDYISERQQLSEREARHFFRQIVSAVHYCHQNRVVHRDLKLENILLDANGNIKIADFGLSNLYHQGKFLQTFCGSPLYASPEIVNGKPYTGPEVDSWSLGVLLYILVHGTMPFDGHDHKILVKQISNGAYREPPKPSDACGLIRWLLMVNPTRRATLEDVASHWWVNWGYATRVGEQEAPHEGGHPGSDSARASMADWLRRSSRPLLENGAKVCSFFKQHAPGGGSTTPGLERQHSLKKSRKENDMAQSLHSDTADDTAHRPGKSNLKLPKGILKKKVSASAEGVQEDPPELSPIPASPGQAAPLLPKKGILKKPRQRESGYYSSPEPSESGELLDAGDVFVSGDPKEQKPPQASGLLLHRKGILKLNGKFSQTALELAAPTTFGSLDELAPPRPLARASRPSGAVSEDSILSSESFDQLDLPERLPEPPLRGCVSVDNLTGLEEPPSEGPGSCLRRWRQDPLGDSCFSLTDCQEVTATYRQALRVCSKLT
# Chain of Calcium/calmodulin-dependent protein kinase type II subunit alpha (Homo sapiens) (Q9UQM7 whole entry): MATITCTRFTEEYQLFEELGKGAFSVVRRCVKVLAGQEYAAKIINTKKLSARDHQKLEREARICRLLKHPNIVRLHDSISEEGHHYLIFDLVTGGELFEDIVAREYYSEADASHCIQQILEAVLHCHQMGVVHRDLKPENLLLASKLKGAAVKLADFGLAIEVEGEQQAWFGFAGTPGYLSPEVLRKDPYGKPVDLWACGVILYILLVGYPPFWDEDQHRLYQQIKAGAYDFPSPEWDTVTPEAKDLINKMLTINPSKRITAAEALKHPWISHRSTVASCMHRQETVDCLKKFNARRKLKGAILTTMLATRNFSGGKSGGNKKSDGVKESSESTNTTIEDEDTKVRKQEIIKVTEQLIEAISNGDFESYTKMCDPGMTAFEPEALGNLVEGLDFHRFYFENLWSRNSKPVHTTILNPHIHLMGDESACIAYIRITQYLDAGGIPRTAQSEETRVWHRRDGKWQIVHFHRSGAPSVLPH
smiles,measurement,setting,value
O=C(N[C@@H](C1CC1)C(F)(F)F)c1cc(-c2cnn3cc(-c4ccc(F)cc4)cnc23)cs1,fold change (FC),[1],0
same,fold change (FC),[2],0.21
CNC(=O)c1ccccc1Oc1nc(Nc2cc(OC)c(OC)c(OC)c2)ncc1Br,inhibition,[3],2%
same,fold change (FC),[4],0.96
same,fold change (FC),[5],0.16
same,fold change (FC),[6],0
CC(C)[C@H](NC(=O)c1cc(-c2cnn3cc(-c4ccc(OCCN5CCCCC5)cc4)cnc23)cs1)C(F)(F)F,inhibition,[7],3%
same,fold change (FC),[8],0
same,fold change (FC),[9],0.2
